{"source": "PubChem BioAssay (NCI)", "assay_in_all_cases": "DTP human tumour cell line panel, 48 h", "key": {"786-0 renal": {"tested_on": "786-0 renal"}, "A498 renal": {"tested_on": "A498 renal"}, "A549 NSCLC": {"tested_on": "A549 NSCLC"}, "BT-549 breast": {"tested_on": "BT-549 breast"}, "CAKI-1 renal": {"tested_on": "CAKI-1 renal"}, "CCRF-CEM leukemia": {"tested_on": "CCRF-CEM leukemia"}, "COLO 205 colon": {"tested_on": "COLO 205 colon"}, "DU-145 prostate": {"tested_on": "DU-145 prostate"}, "EKVX NSCLC": {"tested_on": "EKVX NSCLC"}, "HCC-2998 colon": {"tested_on": "HCC-2998 colon"}, "HCT-116 colon": {"tested_on": "HCT-116 colon"}, "HCT-15 colon": {"tested_on": "HCT-15 colon"}, "HL-60(TB) leukemia": {"tested_on": "HL-60(TB) leukemia"}, "HOP-62 NSCLC": {"tested_on": "HOP-62 NSCLC"}, "HOP-92 NSCLC": {"tested_on": "HOP-92 NSCLC"}, "HS 578T breast": {"tested_on": "HS 578T breast"}, "HT29 colon": {"tested_on": "HT29 colon"}, "IGROV1 ovarian": {"tested_on": "IGROV1 ovarian"}, "K-562 leukemia": {"tested_on": "K-562 leukemia"}, "KM12 colon": {"tested_on": "KM12 colon"}, "LOX IMVI melanoma": {"tested_on": "LOX IMVI melanoma"}, "M14 melanoma": {"tested_on": "M14 melanoma"}, "MALME-3M melanoma": {"tested_on": "MALME-3M melanoma"}, "MCF7 breast": {"tested_on": "MCF7 breast"}, "MDA-MB-231 breast": {"tested_on": "MDA-MB-231 breast"}, "MDA-MB-435": {"tested_on": "MDA-MB-435"}, "MOLT-4 leukemia": {"tested_on": "MOLT-4 leukemia"}, "NCI-H226 lung": {"tested_on": "NCI-H226 lung"}, "NCI-H23 lung": {"tested_on": "NCI-H23 lung"}}, "note": "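Growth conditions: 96-well plates. Treatment: test compound, 48 hours, 5 concentrations. Analysis: linear interpolation between bracketing concentrations; unreached endpoints set to highest concentration. GI50 is the concentration that inhibits growth by half. TGI: total growth inhibition.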"}
{"molecule": "CC(=O)c1ccc2c(c1)c1cc(C(C)=O)ccc1n2CCNC(C)C", "values": [{"measurement": "GI50", "setting": "786-0 renal", "result": 456, "unit": "nM"}, {"measurement": "TGI", "setting": "786-0 renal", "result": 3320, "unit": "nM"}, {"measurement": "GI50", "setting": "A498 renal", "result": 398, "unit": "nM"}, {"measurement": "TGI", "setting": "A498 renal", "result": 1890, "unit": "nM"}, {"measurement": "GI50", "setting": "A549 NSCLC", "result": 433, "unit": "nM"}, {"measurement": "TGI", "setting": "A549 NSCLC", "result": 4310, "unit": "nM"}, {"measurement": "GI50", "setting": "BT-549 breast", "result": 1290, "unit": "nM"}, {"measurement": "TGI", "setting": "BT-549 breast", "result": 3970, "unit": "nM"}, {"measurement": "GI50", "setting": "CAKI-1 renal", "result": 304, "unit": "nM"}, {"measurement": "TGI", "setting": "CAKI-1 renal", "result": 10500, "unit": "nM"}, {"measurement": "GI50", "setting": "CCRF-CEM leukemia", "result": 455, "unit": "nM"}, {"measurement": "TGI", "setting": "CCRF-CEM leukemia", "result": 2650, "unit": "nM"}, {"measurement": "GI50", "setting": "COLO 205 colon", "result": 331, "unit": "nM"}, {"measurement": "TGI", "setting": "COLO 205 colon", "result": 1600, "unit": "nM"}, {"measurement": "GI50", "setting": "DU-145 prostate", "result": 453, "unit": "nM"}, {"measurement": "TGI", "setting": "DU-145 prostate", "result": 5420, "unit": "nM"}, {"measurement": "GI50", "setting": "EKVX NSCLC", "result": 548, "unit": "nM"}, {"measurement": "TGI", "setting": "EKVX NSCLC", "result": 4970, "unit": "nM"}, {"measurement": "GI50", "setting": "HCC-2998 colon", "result": 635, "unit": "nM"}, {"measurement": "TGI", "setting": "HCC-2998 colon", "result": 4390, "unit": "nM"}, {"measurement": "GI50", "setting": "HCT-116 colon", "result": 251, "unit": "nM"}, {"measurement": "TGI", "setting": "HCT-116 colon", "result": 3690, "unit": "nM"}, {"measurement": "GI50", "setting": "HCT-15 colon", "result": 352, "unit": "nM"}, {"measurement": "TGI", "setting": "HCT-15 colon", "result": 3820, "unit": "nM"}, {"measurement": "GI50", "setting": "HL-60(TB) leukemia", "result": 362, "unit": "nM"}, {"measurement": "TGI", "setting": "HL-60(TB) leukemia", "result": 2670, "unit": "nM"}, {"measurement": "GI50", "setting": "HOP-62 NSCLC", "result": 717, "unit": "nM"}, {"measurement": "TGI", "setting": "HOP-62 NSCLC", "result": 4630, "unit": "nM"}, {"measurement": "GI50", "setting": "HOP-92 NSCLC", "result": 764, "unit": "nM"}, {"measurement": "TGI", "setting": "HOP-92 NSCLC", "result": 4270, "unit": "nM"}, {"measurement": "GI50", "setting": "HS 578T breast", "result": 828, "unit": "nM"}, {"measurement": "TGI", "setting": "HS 578T breast", "result": 4770, "unit": "nM"}, {"measurement": "GI50", "setting": "HT29 colon", "result": 342, "unit": "nM"}, {"measurement": "TGI", "setting": "HT29 colon", "result": 2180, "unit": "nM"}, {"measurement": "GI50", "setting": "IGROV1 ovarian", "result": 341, "unit": "nM"}, {"measurement": "TGI", "setting": "IGROV1 ovarian", "result": 6730, "unit": "nM"}, {"measurement": "GI50", "setting": "K-562 leukemia", "result": 332, "unit": "nM"}, {"measurement": "TGI", "setting": "K-562 leukemia", "result": 1810, "unit": "nM"}, {"measurement": "GI50", "setting": "KM12 colon", "result": 427, "unit": "nM"}, {"measurement": "TGI", "setting": "KM12 colon", "result": 3400, "unit": "nM"}, {"measurement": "GI50", "setting": "LOX IMVI melanoma", "result": 211, "unit": "nM"}, {"measurement": "TGI", "setting": "LOX IMVI melanoma", "result": 526, "unit": "nM"}, {"measurement": "GI50", "setting": "M14 melanoma", "result": 358, "unit": "nM"}, {"measurement": "TGI", "setting": "M14 melanoma", "result": 1720, "unit": "nM"}, {"measurement": "GI50", "setting": "MALME-3M melanoma", "result": 230, "unit": "nM"}, {"measurement": "TGI", "setting": "MALME-3M melanoma", "result": 596, "unit": "nM"}, {"measurement": "GI50", "setting": "MCF7 breast", "result": 294, "unit": "nM"}, {"measurement": "TGI", "setting": "MCF7 breast", "result": 1110, "unit": "nM"}, {"measurement": "GI50", "setting": "MDA-MB-231 breast", "result": 516, "unit": "nM"}, {"measurement": "TGI", "setting": "MDA-MB-231 breast", "result": 3160, "unit": "nM"}, {"measurement": "GI50", "setting": "MDA-MB-435", "result": 364, "unit": "nM"}, {"measurement": "TGI", "setting": "MDA-MB-435", "result": 1440, "unit": "nM"}, {"measurement": "GI50", "setting": "MOLT-4 leukemia", "result": 337, "unit": "nM"}, {"measurement": "TGI", "setting": "MOLT-4 leukemia", "result": 1790, "unit": "nM"}, {"measurement": "GI50", "setting": "NCI-H226 lung", "result": 281, "unit": "nM"}, {"measurement": "TGI", "setting": "NCI-H226 lung", "result": 2190, "unit": "nM"}, {"measurement": "GI50", "setting": "NCI-H23 lung", "result": 389, "unit": "nM"}]}
